Assay results as given in PubChem BioAssay AID2060904 (Molecular Pharmacology Branch, DTP, NCI, 2025).
pIC50: −log10 of the molar value.

Tested on: 349418-098-R-PDC complex spheroid viability
Assay: Anticancer human tumor 349418-098-R-PDC patient-derived lung adenocarcinoma cell line growth inhibition [RAS]
Conditions: for pIC50: curve of first compound; for viability, T/C: stronger effect = lower value
How it was run: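 Agents were tested in combination matrices in half-log decrements from a top concentration at or near clinical Cmax (10 microM if undetermined). Targets were multi-cell spheroids of tumour lines plus HUVEC and MSC stromal cells.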

[1] = second compound 0.000949 µM, first compound 0.00316 µM
[2] = second compound 0.000949 µM, first compound 0.01 µM
[3] = second compound 0.000949 µM, first compound 0.0316 µM
[4] = second compound 0.000949 µM, first compound 0.1 µM
[5] = second compound 0.000949 µM, first compound 0.316 µM
[6] = second compound 0.000949 µM, first compound 1 µM
[7] = second compound 0.003 µM, first compound 0.00316 µM
[8] = second compound 0.003 µM, first compound 0.01 µM
[9] = second compound 0.003 µM, first compound 0.0316 µM
[10] = second compound 0.003 µM, first compound 0.1 µM
[11] = second compound 0.003 µM, first compound 0.316 µM
[12] = second compound 0.003 µM, first compound 1 µM
[13] = second compound 0.00949 µM, first compound 0.00316 µM
[14] = second compound 0.00949 µM, first compound 0.01 µM
[15] = second compound 0.00949 µM, first compound 0.0316 µM
[16] = second compound 0.00949 µM, first compound 0.1 µM
[17] = second compound 0.00949 µM, first compound 0.316 µM
[18] = second compound 0.00949 µM, first compound 1 µM
[19] = second compound 0.03 µM, first compound 0.00316 µM
[20] = second compound 0.03 µM, first compound 0.01 µM
[21] = second compound 0.03 µM, first compound 0.0316 µM
[22] = second compound 0.03 µM, first compound 0.1 µM
[23] = second compound 0.03 µM, first compound 0.316 µM
[24] = second compound 0.03 µM, first compound 1 µM
[25] = second compound 0.0949 µM, first compound 0.00316 µM
[26] = second compound 0.0949 µM, first compound 0.01 µM
[27] = second compound 0.0949 µM, first compound 0.0316 µM
[28] = second compound 0.0949 µM, first compound 0.1 µM
[29] = second compound 0.0949 µM, first compound 0.316 µM
[30] = second compound 0.0949 µM, first compound 1 µM
[31] = second compound 0.3 µM, first compound 0.00316 µM
[32] = second compound 0.3 µM, first compound 0.01 µM
[33] = second compound 0.3 µM, first compound 0.0316 µM
[34] = second compound 0.3 µM, first compound 0.1 µM
[35] = second compound 0.3 µM, first compound 0.316 µM
[36] = second compound 0.3 µM, first compound 1 µM
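Also: spheroids exposed to compound for seven days before viability readout.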

## C=CC(=O)Nc1cc(Nc2nccc(-c3cn(C)c4ccccc34)n2)c(OC)cc1N(C)CCN(C)C + CCn1c(-c2cccnc2C(C)OC)c2c3cc(ccc31)N1CCOC(CC(NC(=O)C(C(C)C)N(C)C(=O)C3(F)CCN(C(=O)C#CC(C)(C)N(C)C)CC3)C(=O)N3CCCC(N3)C(=O)OCC(C)(C)C2)C1
Second compound 0.000949 µM
  pIC50: < 6.00
Second compound 0.003 µM
  pIC50: < 6.00
Second compound 0.00949 µM
  pIC50: < 6.00
Second compound 0.03 µM
  pIC50: < 6.00
Second compound 0.0949 µM
  pIC50: < 6.00
Second compound 0.3 µM
  pIC50: < 6.00
[1]
  viability, T/C: 115%
[2]
  viability, T/C: 100%
[3]
  viability, T/C: 93.6%
[4]
  viability, T/C: 98.3%
[5]
  viability, T/C: 95.4%
[6]
  viability, T/C: 71.8%
[7]
  viability, T/C: 117%
[8]
  viability, T/C: 98.6%
[9]
  viability, T/C: 114%
[10]
  viability, T/C: 116%
[11]
  viability, T/C: 116%
[12]
  viability, T/C: 60.7%
[13]
  viability, T/C: 109%
[14]
  viability, T/C: 117%
[15]
  viability, T/C: 110%
[16]
  viability, T/C: 96%
[17]
  viability, T/C: 104%
[18]
  viability, T/C: 75.9%
[19]
  viability, T/C: 119%
[20]
  viability, T/C: 109%
[21]
  viability, T/C: 105%
[22]
  viability, T/C: 106%
[23]
  viability, T/C: 103%
[24]
  viability, T/C: 75.2%
[25]
  viability, T/C: 110%
[26]
  viability, T/C: 99.3%
[27]
  viability, T/C: 85.4%
[28]
  viability, T/C: 98.6%
[29]
  viability, T/C: 101%
[30]
  viability, T/C: 65.3%
[31]
  viability, T/C: 90.2%
[32]
  viability, T/C: 99.8%
[33]
  viability, T/C: 99.2%
[34]
  viability, T/C: 100%
[35]
  viability, T/C: 88.2%
[36]
  viability, T/C: 65.6%

## CC(Nc1ccc2c(c1)OCCn1cc(N3C(=O)OCC3C(F)F)nc1-2)C(N)=O (stereo unspecified) + CCn1c(-c2cccnc2C(C)OC)c2c3cc(ccc31)N1CCOC(CC(NC(=O)C(C(C)C)N(C)C(=O)C3(F)CCN(C(=O)C#CC(C)(C)N(C)C)CC3)C(=O)N3CCCC(N3)C(=O)OCC(C)(C)C2)C1
Second compound 0.000949 µM
  pIC50: 7.44
Second compound 0.003 µM
  pIC50: 7.00
Second compound 0.00949 µM
  pIC50: 7.14
Second compound 0.03 µM
  pIC50: 6.56
Second compound 0.0949 µM
  pIC50: > 7.50
Second compound 0.3 µM
  pIC50: 7.40
[3]
  viability, T/C: 72.9%
[4]
  viability, T/C: 36.7%
[5]
  viability, T/C: 17.7%
[6]
  viability, T/C: 17.2%
Second compound 0.000949 µM, first compound 3.16 µM
  viability, T/C: 101%
Second compound 0.000949 µM, first compound 10 µM
  viability, T/C: 16.2%
[9]
  viability, T/C: 80.3%
[10]
  viability, T/C: 56.2%
[11]
  viability, T/C: 30.2%
[12]
  viability, T/C: 19.6%
Second compound 0.003 µM, first compound 3.16 µM
  viability, T/C: 99.2%
Second compound 0.003 µM, first compound 10 µM
  viability, T/C: 12.9%
[15]
  viability, T/C: 73.4%
[16]
  viability, T/C: 43.6%
[17]
  viability, T/C: 25.2%
[18]
  viability, T/C: 14.9%
Second compound 0.00949 µM, first compound 3.16 µM
  viability, T/C: 94.2%
Second compound 0.00949 µM, first compound 10 µM
  viability, T/C: 11.8%
[21]
  viability, T/C: 67.6%
[22]
  viability, T/C: 43%
[23]
  viability, T/C: 32.2%
[24]
  viability, T/C: 24.3%
Second compound 0.03 µM, first compound 3.16 µM
  viability, T/C: 112%
Second compound 0.03 µM, first compound 10 µM
  viability, T/C: 14.7%
[27]
  viability, T/C: 55.9%
[28]
  viability, T/C: 44.5%
[29]
  viability, T/C: 25.9%
[30]
  viability, T/C: 17.9%
Second compound 0.0949 µM, first compound 3.16 µM
  viability, T/C: 98.1%
Second compound 0.0949 µM, first compound 10 µM
  viability, T/C: 10.4%
[33]
  viability, T/C: 53.7%
[34]
  viability, T/C: 37.8%
[35]
  viability, T/C: 21.5%
[36]
  viability, T/C: 19%
Second compound 0.3 µM, first compound 3.16 µM
  viability, T/C: 65%
Second compound 0.3 µM, first compound 10 µM
  viability, T/C: 14.5%

## O=C(c1ccc(F)c(F)c1Nc1ccc(I)cc1F)N1CC(O)([C@@H]2CCCCN2)C1 + CCn1c(-c2cccnc2C(C)OC)c2c3cc(ccc31)N1CCOC(CC(NC(=O)C(C(C)C)N(C)C(=O)C3(F)CCN(C(=O)C#CC(C)(C)N(C)C)CC3)C(=O)N3CCCC(N3)C(=O)OCC(C)(C)C2)C1
Second compound 0.000949 µM
  pIC50: > 8.50
Second compound 0.003 µM
  pIC50: > 8.50
Second compound 0.00949 µM
  pIC50: > 8.50
Second compound 0.03 µM
  pIC50: > 8.50
Second compound 0.0949 µM
  pIC50: > 8.50
Second compound 0.3 µM
  pIC50: > 8.50
[1]
  viability, T/C: 26.5%
[2]
  viability, T/C: 22.8%
[3]
  viability, T/C: 15.6%
[4]
  viability, T/C: 12.7%
[5]
  viability, T/C: 7.76%
[6]
  viability, T/C: 5.98%
[7]
  viability, T/C: 29.4%
[8]
  viability, T/C: 24.1%
[9]
  viability, T/C: 17.2%
[10]
  viability, T/C: 11.3%
[11]
  viability, T/C: 6.93%
[12]
  viability, T/C: 5.43%
[13]
  viability, T/C: 28.6%
[14]
  viability, T/C: 17.8%
[15]
  viability, T/C: 14.9%
[16]
  viability, T/C: 10.6%
[17]
  viability, T/C: 7.5%
[18]
  viability, T/C: 6.07%
[19]
  viability, T/C: 30.2%
[20]
  viability, T/C: 14.9%
[21]
  viability, T/C: 15.8%
[22]
  viability, T/C: 12%
[23]
  viability, T/C: 7.23%
[24]
  viability, T/C: 5.04%
[25]
  viability, T/C: 27.1%
[26]
  viability, T/C: 17.5%
[27]
  viability, T/C: 13.2%
[28]
  viability, T/C: 10.3%
[29]
  viability, T/C: 6.84%
[30]
  viability, T/C: 5.79%
[31]
  viability, T/C: 30.1%
[32]
  viability, T/C: 15.8%
[33]
  viability, T/C: 12.9%
[34]
  viability, T/C: 11.1%
[35]
  viability, T/C: 7.31%
[36]
  viability, T/C: 5.8%
